The values that follow come from ChEMBL document CHEMBL1145720, “Daleformis, a new phytoalexin from the roots fo Dalea filiciformis: an inhibitor of endothelin converting enzyme” (J Nat Prod, 1997).

The nature of this test: Inhibition of ECE.

Activity calls are given as the source filed them. The rule behind the calls is not given here.

Turning to `CC(=O)Oc1ccc2c(c1)O[C@@H]1c3ccc4c(c3O[C@@H](OC(C)=O)[C@H]21)C=CC(C)(C)O4`, the result was inactive.

Usually IC50 stands for the concentration that gives 50% inhibition. Low values mean greater potency in that assay, high ones weaker potency in that assay. For `CC1(C)C=Cc2c(ccc3c2O[C@@H](O)[C@@H]2c4ccc(O)cc4O[C@H]32)O1` [DALEFORMIS], the IC50 worked out at 9 µM.
